Test system: C. beijerinckii NCIMB 8052
Assay: Ceric ion reactive compounds (total alcohols) in culture broths, colorimetric ceric ammonium nitrate assay
Assay type: cell-based, Clostridium beijerinckii
Settings: 50 nM peptide; for Optical density of ceric ion reactive compounds measured at 500 nm: transfer 3, 96 h, 30° C.
Procedure: Bacterial strains and media. Clostridium acetobutylicum ATCC 824 and C. beijerinckii NCIMB 8052 are available from several commercial microbial culture collections including the American Type Culture Collection (ATCC), Manassas, Va., USA. The strains were grown at 30° C. or 37° C. in YE broth, which contained, per liter: 5.0 g yeast extract, 2.5 g casamino acids, 1.0 g L-asparagine, 0.5 g cysteine.HCl, 56 mg K2HPO4, 56 mg KH2PO4, 82 mg anhydrous MgSO4, 8 mg FeSO4.H2O, 6 mg MnSO4.H2O and 10 g glucose. Alternatively, strains were grown in YEPG broth, which was identical to YE expect that K2HPO4 and KH2PO4 were increased to 145 mg/L each and glucose was increased to 60 g/L. The pH of the media was adjusted to 7.2 using 45% KOH prior to sterilization by autoclaving. Media were solidified by addition of 1.5% Bacteriological Agar, Actimedia Manufacturers, Inc., Lansing, Mich. All cultures were grown in anaerobic conditions using the AnaeroPack System, Mitsubishi Gas Chemical Co., Inc., Japan, and GasPak EZ Gas Generating Sachets, Becton, Dickinson and Co., Sparks, Md. Spore stocks were kept at room temperature on agar-solidified media and were activated by suspending spores in 0.5 mL to 1.0 mL of medium followed by heating for 10 min at 80° C. before inoculation into growth medium.
Analysis of solvents. Total alcohols in cell-free culture supernatants were measured using a modification of a colorimetric method based on ceric ammonium nitrate (Reid and Truelove, 1952). […] The sample was mixed by inverting the cuvette six times then exactly two minutes later the optical density at 500 nm wavelength was measured. The concentration of total alcohols was determined by comparison with a standard curve prepared by using butanol diluted in distilled water.
Effect of peptide SEQ ID NO:145 addition on sequential batch cultures of C. beijerinckii NCIMB 8052 grown at 30° C. […] Each culture was stopped after 96 hours of incubation and optical density, pH and ceric ion reactive chemicals were measured. […]

IRLIT (Derived from Clostridium beijerinckii SEQ ID NO: 141) [Peptide SEQ ID NO:145, pentapeptide from C. beijerinckii NCIMB 8052 locus Cbei_1065; chemically synthesized putative autoinducing peptide]
Effect on endpoint measurements of ceric ion reactive compounds (37° C.): no apparent effect | Optical density of ceric ion reactive compounds measured at 500 nm (listed as SEQ ID NO: 145): −0.002 | Optical density of ceric ion reactive compounds measured at 500 nm (listed as SEQ ID NO:145): no ceric ion reactive compounds
